≈ marks a conversion by molar mass, not a printed value.
Key:
[1] = test system: B. cereus; experiment: Minimum Inhibitory Concentration (MIC), broth dilution method; assay type: cell-based; settings: Bacillus cereus, read-out: MIC B. cereus
Experimental: (§1) Minimum Inhibitory Concentration (MIC), Broth Dilution Method:
(§2) The compounds of the present invention were tested against selected Gram positive and Gram negative organisms using standard microtitration techniques well known to those skilled in the art. Cultures of bacteria were initially applied by streaking a loopful onto agar plates under the appropriate conditions. For example, bacterial stocks are streaked for isolation of single colonies onto chocolate agar and then incubated for 18 hours at 35-37° C. in a 5% CO2 incubator. Five to ten colonies were picked from the chocolate agar plate for subculture to Brain-Heart infusion (BHI) broth, Mueller Hinton broth, or BHI containing 4% serum, and incubated under the appropriate conditions. The ability of the test compound to act as an antimicrobial was determined by the ability of dilutions of the test substance to inhibit bacterial growth in vitro. The optical density of the culture of organisms in the presence of an active compound was compared to the optical density of the same organism grown without test compound. The activity of the compounds is described as either negative or the lowest concentration inhibiting growth (Minimum Inhibitory Concentration [MIC]).
(§3) The activity of selected compounds of the present invention against representative Gram positive and Gram negative bacteria are shown in the following Table 1.

[2] = test system: S. aureus 29213; experiment: as above; assay type: cell-based; settings: Staphylococcus aureus, 29213, read-out: MIC S. aureus 29213
Experimental: as §1, §2, §3

[3] = test system: S. pneumoniae 11733; experiment: as above; assay type: cell-based; settings: Streptococcus pneumoniae, 11733, read-out: MIC S. pneumoniae 11733
Experimental: as §1, §2, §3

[4] = test system: B.anthracis V770-NR1-R; experiment: microbe, parasite or virus in culture; assay type: cell-based; settings: Bacillus anthracis, V770NR1R, read-out: MIC B.anthracis V770-NR1-R

SMILES	MIC [1]	MIC [2]	MIC [3]	melting point	MIC [4]
Cc1cc(O)c(Oc2ccccc2C#N)cc1-n1cccc1 [Example 29, 2-(2-Hydroxy-4-methyl-5-pyrrol-1-yl-phenoxy)-benzonitrile]	4000 mg/L (≈ 13800 µM)	62500 mg/L (≈ 215000 µM)	500 mg/L (≈ 1720 µM)	158 to 160 °C	–
CCOC(=O)c1nc(-c2cc(Oc3ccc(Cl)cc3Cl)c(O)cc2Cl)no1 [Example 35, 3-[2-Chloro-5-(2,4-dichloro-phenoxy)-4-hydroxy-phenyl][1,2,4]oxadiazole-5-carboxylic acid ethyl ester]	100 mg/L (≈ 233 µM)	200 mg/L (≈ 466 µM)	–	130 °C	100 mg/L (≈ 233 µM)
Oc1cc(Cl)c(-c2ccsc2)cc1Oc1ccc(Cl)cc1Cl [Example 5, 5-Chloro-2-(2,4-dichloro-phenoxy)-4-thiophen-3-yl-phenol]	200 mg/L (≈ 538 µM)	130 mg/L (≈ 350 µM)	10 mg/L (≈ 26.9 µM)	–	400 mg/L (≈ 1080 µM)
O=C(Nc1cc(C(F)(F)F)cc(C(F)(F)F)c1)Nc1cc(Oc2ccc(Cl)cc2Cl)c(O)cc1Cl [Example 15, 1-(3,5-Bis-trifluoromethyl-phenyl)-3-[2-chloro-5-(2,4-dichloro-phenoxy)-4-hydroxy-phenyl]-urea]	100 mg/L (≈ 179 µM)	4000 mg/L (≈ 7150 µM)	–	–	800 mg/L (≈ 1430 µM)
N#Cc1cc(Cl)ccc1Oc1cc(N2CCOCC2)c(F)cc1O	–	–	–	149 to 151 °C	–
Cc1cc(O)c(Oc2ccccc2C#N)cc1N1CCOCC1 [Example 31, 2-(2-Hydroxy-4-methyl-5-morpholin-4-yl-phenoxy)-benzonitrile]	3100 mg/L (≈ 9990 µM)	7900 mg/L (≈ 25500 µM)	4000 mg/L (≈ 12900 µM)	–	6200 mg/L (≈ 20000 µM)
O=C(O)c1cc(Oc2ccc(Cl)cc2Cl)c(O)cc1Cl	–	–	–	192 to 196 °C	–
N/C(=N/O)c1cc(Oc2ccc(Cl)cc2Cl)c(O)cc1Cl [Example 34, 2-Chloro-5-(2,4-dichloro-phenoxy)-4,N-dihydroxy-benzamidine]	100 mg/L (≈ 288 µM)	100 mg/L (≈ 288 µM)	–	137 °C	200 mg/L (≈ 575 µM)
N#Cc1ccccc1Oc1cc(-n2cccc2)ccc1O [Example 18, 2-(2-Hydroxy-5-pyrrol-1-yl-phenoxy)-benzonitrile]	> 25000 mg/L	4000 mg/L (≈ 14500 µM)	4000 mg/L (≈ 14500 µM)	–	> 25000 mg/L
Cc1cc(O)c(Oc2ccccc2C#N)cc1-c1cccs1 [Example 26, 2-(2-Hydroxy-4-methyl-5-thiophen-2-yl-phenoxy)-benzonitrile]	12500 mg/L (≈ 40700 µM)	4000 mg/L (≈ 13000 µM)	500 mg/L (≈ 1630 µM)	–	12500 mg/L (≈ 40700 µM)
O=C(O)c1nc(-c2cc(Oc3ccc(Cl)cc3Cl)c(O)cc2Cl)no1 [Example 36, 3-[2-Chloro-5-(2,4-dichloro-phenoxy)-4-hydroxy-phenyl]-[1,2,4]oxadiazole-5-carboxylic acid]	100 mg/L (≈ 249 µM)	200 mg/L (≈ 498 µM)	–	115 °C	50 mg/L (≈ 125 µM)
Cc1nnsc1C(=O)Nc1cc(Oc2ccc(Cl)cc2Cl)c(O)cc1Cl [Example 21, 4-Methyl-[1,2,3]thiadiazole-5-carboxylic acid [2-chloro-5-(2,4-dichloro-phenoxy)-4-hydroxy-phenyl]-amide]	–	4000 mg/L (≈ 9290 µM)	4000 mg/L (≈ 9290 µM)	–	–
Oc1cc(Cl)c(-c2ccco2)cc1Oc1ccc(Cl)cc1Cl [Example 4, 5-Chloro-2-(2,4-dichloro-phenoxy)-4-furan-2-yl-phenol]	–	500 mg/L (≈ 1410 µM)	500 mg/L (≈ 1410 µM)	–	–
O=[N+]([O-])c1ccc(NC(=S)Nc2cc(Oc3ccc(Cl)cc3Cl)c(O)cc2Cl)cc1 [Example 13, 1-[2-Chloro-5-(2,4-dichloro-phenoxy)-4-hydroxy-phenyl]-3-(4-nitro-phenyl)-thiourea]	–	1000 mg/L (≈ 2060 µM)	15600 mg/L (≈ 32200 µM)	–	–
Oc1cc(Cl)c(-n2cnnn2)cc1Oc1ccc(Cl)cc1Cl [Example 32, 5-Chloro-2-(2,4-dichloro-phenoxy)-4-tetrazol-1-yl-phenol]	1300 mg/L (≈ 3640 µM)	1600 mg/L (≈ 4470 µM)	3100 mg/L (≈ 8670 µM)	147 to 148 °C	800 mg/L (≈ 2240 µM)
Oc1cc(Cl)c(NC(=S)Nc2ccc(F)cc2)cc1Oc1ccc(Cl)cc1Cl [Example 10, 1-[2-Chloro-5-(2,4-dichloro-phenoxy)-4-hydroxy-phenyl]-3-(4-fluoro-phenyl)-thiourea]	400 mg/L (≈ 874 µM)	4000 mg/L (≈ 8740 µM)	31300 mg/L (≈ 68400 µM)	89 to 91 °C	1600 mg/L (≈ 3500 µM)

Source: patent publication US20070054884A1 (priority 2005, published 2007)
